Data taken from publication PMC8449129, “Single tracer-based protocol for broad-spectrum kinase profiling in live cells with NanoBRET” (STAR Protocols, 2021).

What was measured:
[1] = molecular target: T1, AXL (Homo sapiens, UniProt P30530); test: NanoBRET target engagement, Tracer K10 displacement in live HEK293 cells; assay type: cell-based; conditions: […] h, […] C, n = […]
T1 construct: full-length kinase, C-terminal NanoLuc fusion, transfected HEK293 cells

[2] = molecular target: T2, EPHB4 (Homo sapiens, UniProt P54760); test: as above; assay type: cell-based; conditions: […] h, […] C, n = […]
T2 construct: full-length kinase, C-terminal NanoLuc fusion, transfected HEK293 cells
Source text: NanoBRET target engagement, Tracer K10 displacement in live HEK293 cells on EPHB4

[3] = molecular target: T3, EPHA7 (Homo sapiens, UniProt Q15375); test: as above; assay type: cell-based; conditions: […] h, […] C, n = […]
T3 construct: full-length kinase, C-terminal NanoLuc fusion, transfected HEK293 cells
Source text: NanoBRET target engagement, Tracer K10 displacement in live HEK293 cells on EPHA7

[4] = molecular target: PKMYT1 (Homo sapiens, UniProt Q99640); test: cell-based; set-up: NanoBRET live-cell target engagement; % occupancy from displacement of tracer K10 on NanoLuc-kinase fusions, mean n=3; conditions: HEK293, read-out: % inhibition
Experimental: (§1) • 18. Prepare 10× test compounds in OptiMEM • a. Dilute the test compound to 1000× in DMSO (or the test compound solvent). […] Add 10μL per well of 10× test compound or 10μL of the DMSO control to the 96-well plates containing cells with 1× tracer. Mix on orbital shaker for 15 s at 900 rpm. • 20. Incubate the plate at 37°C + 5% CO2 incubator for 2hr. Allow plate to cool to RT for ∼15 min, then proceed to NanoBRET^TM Assay section below. • 21. Immediately before the BRET measurements, prepare 3× Complete NanoBRET^TM Nano-Glo® Substrate in OptiMEM without serum or phenol red. […] Mix gently by inverting 5–10 times in a conical tube. (The final concentration of Extracellular NanoLuc inhibitor in the 3× solution is 60 μM, for a working concentration of 20 μM.) • a. Note: 3× solutions should be used within 1.5 h after preparation. • 22. […] Incubate 2–3 min at RT. Following addition of NanoBRET^TM Nano-Glo® Substrate, measure donor emission (e.g., 450 nm) and acceptor emission (e.g., 610 nm or 630 nm) using a NanoBRET™-compatible luminometer. Fractional occupancy Quantitation • 2. Determine Fractional Occupancy with the following equation; % Occupancy = [1 – (X – Z)/( Y – Z)]∗100 • Where: • X = BRET in the presence of the test compound and tracer, • Y = BRET in the presence of the 100% BRET Control (Tracer + DMSO) • Z = BRET for the Zero BRET Control, e.g., • a. BRET from the NanoLuc Control Vector • b. BRET from Kinase/NanoLuc fusion + saturating dose of control test compound.

[5] = molecular target: MAP3K2 (Homo sapiens, UniProt Q9Y2U5); test: cell-based; set-up: NanoBRET live-cell target engagement; % occupancy from displacement of tracer K10 on NanoLuc-kinase fusions, mean n=3; conditions: HEK293, read-out: % inhibition
Experimental: as §1

[6] = molecular target: NEK9 (Homo sapiens, UniProt Q8TD19); test: cell-based; set-up: NanoBRET live-cell target engagement; % occupancy from displacement of tracer K10 on NanoLuc-kinase fusions, mean n=3; conditions: HEK293, read-out: % inhibition
Experimental: as §1

[7] = molecular target: CAMK2A (Homo sapiens, UniProt Q9UQM7); test: cell-based; set-up: NanoBRET live-cell target engagement; % occupancy from displacement of tracer K10 on NanoLuc-kinase fusions, mean n=3; conditions: HEK293, read-out: % inhibition
Experimental: as §1

[8] = molecular target: NUAK1 (Homo sapiens, UniProt O60285); test: cell-based; set-up: NanoBRET live-cell target engagement; % occupancy from displacement of tracer K10 on NanoLuc-kinase fusions, mean n=3; conditions: HEK293, read-out: % inhibition
Experimental: as §1

[9] = molecular target: MARK2 (Homo sapiens, UniProt Q7KZI7); test: cell-based; set-up: NanoBRET live-cell target engagement; % occupancy from displacement of tracer K10 on NanoLuc-kinase fusions, mean n=3; conditions: HEK293, read-out: % inhibition
Experimental: as §1

[10] = molecular target: CDK1 (Homo sapiens, UniProt P06493); test: cell-based; set-up: NanoBRET live-cell target engagement; % occupancy from displacement of tracer K10 on NanoLuc-kinase fusions, mean n=3; conditions: HEK293, read-out: % inhibition
Experimental: as §1

[11] = molecular target: ABL2 (Homo sapiens, UniProt P42684); test: cell-based; set-up: NanoBRET live-cell target engagement; % occupancy from displacement of tracer K10 on NanoLuc-kinase fusions, mean n=3; conditions: HEK293, read-out: % inhibition
Experimental: as §1

[12] = molecular target: TLK2 (Homo sapiens, UniProt Q86UE8); test: cell-based; set-up: NanoBRET live-cell target engagement; % occupancy from displacement of tracer K10 on NanoLuc-kinase fusions, mean n=3; conditions: HEK293, read-out: % inhibition
Experimental: as §1

[13] = molecular target: LTK (Homo sapiens, UniProt P29376); test: cell-based; set-up: species or system HEK293; NanoBRET live-cell target engagement; % occupancy from displacement of tracer K10 on NanoLuc-kinase fusions, mean n=3; conditions: D=C; E=100; % occupancy, tracer K10 displacement; 1 µM; binder
Experimental: as §1, with “BRET from the NanoLuc Control Vector • b. BRET from Kinase/NanoLuc fusion + saturating dose of control test compound.” left out

[14] = molecular target: STK33 (Homo sapiens, UniProt Q9BYT3); test: cell-based; set-up: species or system HEK293; NanoBRET live-cell target engagement; % occupancy from displacement of tracer K10 on NanoLuc-kinase fusions, mean n=3; conditions: HEK293; D=N; E=250; % occupancy, tracer K10 displacement
Experimental: as §1, with “BRET from the NanoLuc Control Vector • b. BRET from Kinase/NanoLuc fusion + saturating dose of control test compound.” left out

[15] = molecular target: T4, NTRK1 (Homo sapiens, UniProt P04629); test: NanoBRET target engagement, Tracer K10 displacement in live HEK293 cells; assay type: cell-based; conditions: […] h, […] C, n = […]
T4 construct: full-length kinase, C-terminal NanoLuc fusion, transfected HEK293 cells

[16] = molecular target: T5, SBK3 (Homo sapiens, UniProt P0C264); test: as above; assay type: cell-based; conditions: […] h, […] C, n = […]
T5 construct: full-length kinase, N-terminal NanoLuc fusion, transfected HEK293 cells
Source text: NanoBRET target engagement, Tracer K10 displacement in live HEK293 cells on SBK3

[17] = molecular target: T6, EPHA4 (Homo sapiens, UniProt P54764); test: as above; assay type: cell-based; conditions: […] h, […] C, n = […]
T6 construct: full-length kinase, C-terminal NanoLuc fusion, transfected HEK293 cells
Source text: NanoBRET target engagement, Tracer K10 displacement in live HEK293 cells on EPHA4

[18] = molecular target: T7, EPHA1 (Homo sapiens, UniProt P21709); test: as above; assay type: cell-based; conditions: […] h, […] C, n = […]
T7 construct: full-length kinase, C-terminal NanoLuc fusion, transfected HEK293 cells
Source text: NanoBRET target engagement, Tracer K10 displacement in live HEK293 cells on EPHA1

[19] = molecular target: T8, EPHA6 (Homo sapiens, UniProt Q9UF33); test: as above; assay type: cell-based; conditions: […] h, […] C, n = […]
T8 construct: full-length kinase, C-terminal NanoLuc fusion, transfected HEK293 cells
Source text: NanoBRET target engagement, Tracer K10 displacement in live HEK293 cells on EPHA6

[20] = molecular target: T9, EPHB1 (Homo sapiens, UniProt P54762); test: as above; assay type: cell-based; conditions: […] h, […] C, n = […]
T9 construct: full-length kinase, C-terminal NanoLuc fusion, transfected HEK293 cells
Source text: NanoBRET target engagement, Tracer K10 displacement in live HEK293 cells on EPHB1

[21] = molecular target: T10, NTRK2 (Homo sapiens, UniProt Q16620); test: as above; assay type: cell-based; conditions: […] h, […] C, n = […]
T10 construct: full-length kinase, C-terminal NanoLuc fusion, transfected HEK293 cells
Source text: NanoBRET target engagement, Tracer K10 displacement in live HEK293 cells on NTRK2

[22] = molecular target: T11, AURKC (Homo sapiens, UniProt Q9UQB9); test: as above; assay type: cell-based; conditions: […] h, […] C, n = […]
T11 construct: full-length kinase, C-terminal NanoLuc fusion, transfected HEK293 cells
Source text: NanoBRET target engagement, Tracer K10 displacement in live HEK293 cells on AURKC

T3 sequence (Q15375 28-998): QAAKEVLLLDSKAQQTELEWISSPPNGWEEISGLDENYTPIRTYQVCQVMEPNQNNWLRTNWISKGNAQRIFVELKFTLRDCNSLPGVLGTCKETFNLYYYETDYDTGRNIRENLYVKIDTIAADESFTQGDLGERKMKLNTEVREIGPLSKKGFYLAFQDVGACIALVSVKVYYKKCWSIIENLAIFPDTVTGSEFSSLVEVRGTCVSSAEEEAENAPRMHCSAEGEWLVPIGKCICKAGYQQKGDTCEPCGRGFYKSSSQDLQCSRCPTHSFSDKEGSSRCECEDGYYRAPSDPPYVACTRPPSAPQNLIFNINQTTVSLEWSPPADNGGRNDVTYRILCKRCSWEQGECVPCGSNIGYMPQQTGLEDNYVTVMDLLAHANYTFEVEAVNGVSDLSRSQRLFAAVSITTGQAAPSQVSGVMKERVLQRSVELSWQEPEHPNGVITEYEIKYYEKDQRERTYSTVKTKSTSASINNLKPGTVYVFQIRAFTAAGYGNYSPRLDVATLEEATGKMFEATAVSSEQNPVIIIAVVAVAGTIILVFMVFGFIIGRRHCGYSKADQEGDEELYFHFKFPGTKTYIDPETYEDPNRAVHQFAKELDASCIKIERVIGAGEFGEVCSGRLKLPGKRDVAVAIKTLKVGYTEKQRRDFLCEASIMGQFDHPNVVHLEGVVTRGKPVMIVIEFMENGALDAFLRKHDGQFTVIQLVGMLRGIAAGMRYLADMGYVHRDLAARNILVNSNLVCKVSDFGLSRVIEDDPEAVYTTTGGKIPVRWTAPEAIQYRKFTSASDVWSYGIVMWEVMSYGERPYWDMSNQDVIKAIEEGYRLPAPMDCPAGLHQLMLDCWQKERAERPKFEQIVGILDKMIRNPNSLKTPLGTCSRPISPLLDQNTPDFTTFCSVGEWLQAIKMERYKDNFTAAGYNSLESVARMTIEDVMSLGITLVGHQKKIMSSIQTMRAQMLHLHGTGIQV
T5 sequence (P0C264 whole entry, the tested form may be a part): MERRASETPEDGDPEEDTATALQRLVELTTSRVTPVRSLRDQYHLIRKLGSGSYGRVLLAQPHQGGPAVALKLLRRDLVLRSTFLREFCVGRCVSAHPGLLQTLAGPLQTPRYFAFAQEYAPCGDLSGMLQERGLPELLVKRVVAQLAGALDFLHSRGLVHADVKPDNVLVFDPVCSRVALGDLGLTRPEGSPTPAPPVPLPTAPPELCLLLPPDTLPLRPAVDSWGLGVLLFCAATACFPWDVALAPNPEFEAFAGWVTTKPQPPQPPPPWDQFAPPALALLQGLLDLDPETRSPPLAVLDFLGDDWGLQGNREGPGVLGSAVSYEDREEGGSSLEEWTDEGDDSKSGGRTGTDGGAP
Sequence of TLK2 (Q86UE8 whole entry, the tested form may be a part): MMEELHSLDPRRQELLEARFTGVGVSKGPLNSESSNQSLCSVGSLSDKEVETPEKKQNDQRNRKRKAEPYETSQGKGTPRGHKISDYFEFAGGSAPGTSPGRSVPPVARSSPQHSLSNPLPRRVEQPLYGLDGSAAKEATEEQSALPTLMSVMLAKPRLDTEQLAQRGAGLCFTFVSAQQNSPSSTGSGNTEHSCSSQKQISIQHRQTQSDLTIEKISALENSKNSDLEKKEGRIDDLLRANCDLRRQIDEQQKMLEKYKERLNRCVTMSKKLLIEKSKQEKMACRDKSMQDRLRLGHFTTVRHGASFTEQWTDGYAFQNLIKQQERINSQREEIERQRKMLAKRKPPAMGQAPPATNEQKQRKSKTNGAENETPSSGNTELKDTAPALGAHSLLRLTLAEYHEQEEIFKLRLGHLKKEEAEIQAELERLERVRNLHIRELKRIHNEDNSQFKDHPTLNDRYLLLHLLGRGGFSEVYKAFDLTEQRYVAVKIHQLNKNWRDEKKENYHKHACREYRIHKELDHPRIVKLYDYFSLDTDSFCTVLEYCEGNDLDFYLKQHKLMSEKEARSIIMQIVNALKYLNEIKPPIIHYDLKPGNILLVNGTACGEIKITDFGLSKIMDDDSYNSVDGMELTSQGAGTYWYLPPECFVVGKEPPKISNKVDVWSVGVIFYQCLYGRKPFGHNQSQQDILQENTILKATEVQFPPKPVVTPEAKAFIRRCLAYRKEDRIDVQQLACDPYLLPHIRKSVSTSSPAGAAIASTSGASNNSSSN
Sequence of STK33 (Q9BYT3 whole entry, the tested form may be a part): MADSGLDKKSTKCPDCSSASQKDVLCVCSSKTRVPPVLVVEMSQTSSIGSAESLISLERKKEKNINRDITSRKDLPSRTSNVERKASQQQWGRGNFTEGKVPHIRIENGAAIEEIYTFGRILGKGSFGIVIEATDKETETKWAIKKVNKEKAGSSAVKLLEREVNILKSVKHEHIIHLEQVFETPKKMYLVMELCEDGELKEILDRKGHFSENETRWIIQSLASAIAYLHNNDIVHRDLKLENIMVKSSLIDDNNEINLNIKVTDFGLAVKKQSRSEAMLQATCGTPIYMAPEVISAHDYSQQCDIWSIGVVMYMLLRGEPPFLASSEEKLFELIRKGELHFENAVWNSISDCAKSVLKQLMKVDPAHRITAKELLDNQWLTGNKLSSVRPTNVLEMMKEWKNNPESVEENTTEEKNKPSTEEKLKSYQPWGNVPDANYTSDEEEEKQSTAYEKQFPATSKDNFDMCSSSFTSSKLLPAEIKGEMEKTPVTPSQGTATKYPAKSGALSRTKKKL
Sequence of MAP3K2 (Q9Y2U5 whole entry, the tested form may be a part): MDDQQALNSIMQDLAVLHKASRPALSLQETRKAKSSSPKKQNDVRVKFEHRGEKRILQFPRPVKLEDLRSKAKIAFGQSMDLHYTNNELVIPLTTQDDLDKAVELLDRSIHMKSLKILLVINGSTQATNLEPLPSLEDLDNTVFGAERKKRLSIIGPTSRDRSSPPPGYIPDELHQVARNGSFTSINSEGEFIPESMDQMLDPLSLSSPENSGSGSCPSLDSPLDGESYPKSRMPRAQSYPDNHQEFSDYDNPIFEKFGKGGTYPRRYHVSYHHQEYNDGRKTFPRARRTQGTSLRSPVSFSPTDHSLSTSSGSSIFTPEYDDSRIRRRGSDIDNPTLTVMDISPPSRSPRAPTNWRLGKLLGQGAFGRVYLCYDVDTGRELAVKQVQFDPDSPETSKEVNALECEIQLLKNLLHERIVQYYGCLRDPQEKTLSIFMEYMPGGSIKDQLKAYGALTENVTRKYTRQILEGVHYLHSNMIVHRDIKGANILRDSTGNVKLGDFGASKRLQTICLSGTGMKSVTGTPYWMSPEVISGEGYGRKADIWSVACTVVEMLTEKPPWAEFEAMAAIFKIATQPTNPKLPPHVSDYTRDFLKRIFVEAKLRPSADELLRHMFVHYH
Sequence of LTK (P29376 whole entry, the tested form may be a part): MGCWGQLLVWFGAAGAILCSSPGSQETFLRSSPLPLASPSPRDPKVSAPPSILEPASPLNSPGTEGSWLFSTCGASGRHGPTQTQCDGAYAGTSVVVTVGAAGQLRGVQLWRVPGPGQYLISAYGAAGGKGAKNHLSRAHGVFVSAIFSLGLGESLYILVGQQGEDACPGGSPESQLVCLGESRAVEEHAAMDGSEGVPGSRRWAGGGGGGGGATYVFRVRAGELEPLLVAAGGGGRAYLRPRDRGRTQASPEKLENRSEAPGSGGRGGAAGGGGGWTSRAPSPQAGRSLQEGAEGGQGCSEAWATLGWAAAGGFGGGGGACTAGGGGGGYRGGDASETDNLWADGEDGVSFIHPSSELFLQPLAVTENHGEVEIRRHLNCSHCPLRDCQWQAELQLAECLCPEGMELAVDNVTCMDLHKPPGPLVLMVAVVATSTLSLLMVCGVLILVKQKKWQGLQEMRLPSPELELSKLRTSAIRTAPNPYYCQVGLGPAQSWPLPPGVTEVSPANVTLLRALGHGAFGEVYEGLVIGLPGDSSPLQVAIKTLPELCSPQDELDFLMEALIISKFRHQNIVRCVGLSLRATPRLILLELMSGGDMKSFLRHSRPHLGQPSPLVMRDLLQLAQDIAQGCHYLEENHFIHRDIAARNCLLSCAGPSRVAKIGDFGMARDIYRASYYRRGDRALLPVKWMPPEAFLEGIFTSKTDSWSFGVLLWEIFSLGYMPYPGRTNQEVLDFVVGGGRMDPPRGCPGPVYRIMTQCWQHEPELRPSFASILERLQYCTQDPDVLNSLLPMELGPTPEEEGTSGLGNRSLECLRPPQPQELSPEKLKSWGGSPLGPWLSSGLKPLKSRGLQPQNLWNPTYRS
Sequence of MARK2 (Q7KZI7 whole entry, the tested form may be a part): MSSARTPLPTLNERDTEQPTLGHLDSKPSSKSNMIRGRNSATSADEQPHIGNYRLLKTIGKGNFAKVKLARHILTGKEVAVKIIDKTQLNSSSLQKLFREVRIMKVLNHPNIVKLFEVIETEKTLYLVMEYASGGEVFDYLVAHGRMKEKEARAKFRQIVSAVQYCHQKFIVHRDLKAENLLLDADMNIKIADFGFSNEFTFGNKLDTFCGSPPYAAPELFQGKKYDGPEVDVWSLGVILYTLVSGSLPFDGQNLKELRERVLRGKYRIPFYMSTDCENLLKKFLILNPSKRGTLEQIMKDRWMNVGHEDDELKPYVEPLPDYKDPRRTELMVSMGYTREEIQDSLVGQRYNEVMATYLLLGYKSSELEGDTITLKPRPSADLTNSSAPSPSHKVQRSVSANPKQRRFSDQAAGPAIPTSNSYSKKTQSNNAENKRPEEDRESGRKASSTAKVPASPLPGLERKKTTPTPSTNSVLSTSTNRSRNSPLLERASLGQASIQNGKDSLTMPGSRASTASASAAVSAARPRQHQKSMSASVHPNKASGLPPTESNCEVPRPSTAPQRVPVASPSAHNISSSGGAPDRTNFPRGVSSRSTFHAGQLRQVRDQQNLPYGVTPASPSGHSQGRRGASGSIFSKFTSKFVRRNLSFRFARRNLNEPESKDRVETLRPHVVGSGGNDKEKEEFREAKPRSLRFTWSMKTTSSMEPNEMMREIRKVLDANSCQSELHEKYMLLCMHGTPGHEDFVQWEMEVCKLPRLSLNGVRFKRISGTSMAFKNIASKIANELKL

Crizotinib % occupancy, 1 uM [1]: 68 ± 1.5%
Crizotinib % occupancy, 1 uM [2]: 62 ± 3.6%
Crizotinib % occupancy, 1 uM [3]: 38 ± 2.4%
inhibition at 1 µM [4]: 6%
inhibition at 1 µM [5]: 6%
inhibition at 1 µM [7]: 3%
inhibition at 1 µM [8]: 36%
inhibition at 1 µM [9]: 4%
inhibition at 1 µM [10]: 7%
inhibition at 1 µM [11]: 43%
inhibition at 1 µM [12]: 0%
% inhibition [13]: 87%
inhibition at 1 µM [14]: -3%
Crizotinib % occupancy, 1 uM [15]: 71 ± 2.5%
Crizotinib % occupancy, 1 uM [16]: 41 ± 5.6%
Crizotinib % occupancy, 1 uM [17]: 53 ± 4.4%
Crizotinib % occupancy, 1 uM [18]: 75 ± 2.2%
Crizotinib % occupancy, 1 uM [19]: 64 ± 5.1%
Crizotinib % occupancy, 1 uM [20]: 68 ± 2.0%
Crizotinib % occupancy, 1 uM [21]: 85 ± 2.3%
Crizotinib % occupancy, 1 uM [22]: 48 ± 4.2%
SMILES: C[C@@H](Oc1cc(-c2cnn(C3CCNCC3)c2)cnc1N)c1c(Cl)ccc(F)c1Cl [crizotinib]
inhibition at 1 µM [6]: 1%
